In patent publication US10010525B2, “Methods of inducing anesthesia” (The Regents of the University of California, priority 2012, dated 2018):
Entries after “also recorded” stand apart in the source; their conditions may differ.

What was measured:
[1] = system: 3-transmembrane (TM3) and 4-transmembrane (TM4) receptors; conditions: grouped by calculated molar solubility in unbuffered water at 25° C.; cited from earlier work
[2] = molecular target: T1, GABAA (α1β2γ2s) receptors (UniProt P14867+P18508+P63138); assay: GABAA receptor two-electrode voltage clamp in oocytes at saturated drug concentration; assay type: cell-based, human α1, rat β2 and γ2s; conditions: for GABAA % Direct Effect: drug response without receptor agonist; for GABAA % Direct Effect / GABAA % Agonist Effect: percent of control agonist peak, mean ±SEM, 5-6 oocytes, saturated drug; for GABAA % Agonist Effect: drug with γ-aminobutyric acid; for GABAA Drug Response: drug+agonist versus control agonist peak
T1 construct: expressed in transfected cells; host or cells: Xenopus laevis oocytes (intranuclear plasmid injection, α1:β2:γ2 = 1:1:10)
Description: (§1) GABAA (α1β2γ2s) or NMDA (NR1/NR2A) receptors were expressed in oocytes and studied using standard two-electrode voltage clamp techniques. Hydrocarbons from 14 different organic functional groups were studied at saturated concentrations, and compounds within each group differed only by the carbon number at the ω-position or within a saturated ring. An effect on GABAA or NMDA receptors was defined as a 10% or greater reversible current change from baseline that was statistically different from zero.
(§2) An ovary from tricaine-anesthetized Xenopus laevis frogs was surgically removed using a protocol approved by the Institutional Animal Care and Use Committee at the University of California, Davis. Following manual disruption of the ovarian lobule septae, the ovary was incubated in 0.2% Type I collagenase (Worthington Biochemical, Lakewood, N.J.) to defolliculate oocytes which were washed and stored in fresh and filtered modified Barth's solution composed of 88 mM NaCl, 1 mM KCl, 2.4 mM NaHCO3, 20 mM HEPES, 0.82 mM MgSO4, 0.33 mM Ca(NO3)2, 0.41 mM CaCl2, 5 mM sodium pyruvate, gentamycin, penicillin, streptomycin, and corrected to pH=7.4. All salts and antibiotics were A.C.S. grade (Fisher Scientific, Pittsburgh, Pa.).
(§3) Clones used were provided as a gift from Dr. R. A. Harris (University of Texas, Austin) and were sequenced and compared to references in the National Center for Biotechnology Information database to confirm the identity of each gene. GABAA receptors were expressed using clones for the human GABAA α1 and the rat GABAA β2 and γ2s subunits in pCIS-II vectors. […] In separate oocytes, glutamate receptors were expressed using rat NMDA NR1 clones in a pCDNA3 vector and rat NMDA NR2A clones in a Bluescript vector. RNA encoding each subunit was prepared using a commercial transcription kit (T7 mMessage mMachine, Ambion, Austin, Tex.) was mixed in a 1:1 ratio, and 1-10 ng of total RNA was injected into oocytes and studied 1-2 days later.
Oocytes were studied in a 250 μL linear-flow perfusion chamber with solutions administered by syringe pump at 1.5 ml/min with gastight glass syringes and Teflon tubing. Oocyte GABAA currents were studied using standard two-electrode voltage clamping techniques at a holding potential of […] using a 250 μL channel linear-flow perfusion chamber with solutions administered by syringe pump at 1.5 mL/min.
After FR perfusion for 5 min, oocytes were exposed to 30 sec FR-GABA followed by another 5 min FR washout; this was repeated until stable GABAA-elicited peaks were obtained. Next, FR containing a saturated solution of the study drug (Table 2)—or for gaseous study compounds a vapor pressure equal to 90% of barometric pressure with balance oxygen—was used to perfuse the oocyte chamber for 2 min followed by perfusion with a FR-GABA solution containing the identical drug concentration for 30 sec.
(§4) Modulating drug responses were calculated as the percent of the control (baseline) peak as follows: 100·ID/IB, where ID and IB were the peak currents measured during agonist+drug and agonist baseline perfusions, respectively. When present, direct receptor activation by a drug was similarly calculated as a percent of the agonist response. […] A lack of receptor response (cut-off) was defined as a<10% change from baseline current that was statistically indistinguishable from zero using a two-tailed Student t-test.

[3] = molecular target: T2, NMDA (NR1/NR2A) receptors (Rattus norvegicus, UniProt P35439+Q00959); assay: NMDA receptor two-electrode voltage clamp in oocytes at saturated drug concentration; assay type: cell-based; conditions: for NMDA % Direct Effect: drug response without receptor agonist; for NMDA % Direct Effect / NMDA % Agonist Effect: percent of control agonist peak, mean ±SEM, 5-6 oocytes, saturated drug; for NMDA % Agonist Effect: drug with glutamate and glycine; for NMDA Drug Response: drug+agonist versus control agonist peak; for NMDA receptor modulation (in words): saturating aqueous concentration
T2 construct: expressed in transfected cells; host or cells: Xenopus laevis oocytes (RNA injection, 1:1)
Description: as §1, §2, §3
Briefly, baseline perfusion solutions were the same as for GABAA with the substitution of equimolar BaCl2 for calcium salts and the addition of 0.1 mM EGTA; this constituted barium frog Ringer's solution (BaFR). Agonist solutions for NMDA studies also contained 0.1 mM glutamate (E) and 0.01 mM glycine (G) to constitute a BaFREG solution.
The syringe pump and perfusion chamber apparatus as well as the clamp holding potential and baseline-agonist exposure protocols were identical to that described for the GABAA studies. The same test compounds, concentrations, and preparative methods were used in NMDA voltage clamp studies as in the GABAA voltage clamp studies (Table 2).
as §4

T2 sequence (Q00959 23-1464, other chains not shown): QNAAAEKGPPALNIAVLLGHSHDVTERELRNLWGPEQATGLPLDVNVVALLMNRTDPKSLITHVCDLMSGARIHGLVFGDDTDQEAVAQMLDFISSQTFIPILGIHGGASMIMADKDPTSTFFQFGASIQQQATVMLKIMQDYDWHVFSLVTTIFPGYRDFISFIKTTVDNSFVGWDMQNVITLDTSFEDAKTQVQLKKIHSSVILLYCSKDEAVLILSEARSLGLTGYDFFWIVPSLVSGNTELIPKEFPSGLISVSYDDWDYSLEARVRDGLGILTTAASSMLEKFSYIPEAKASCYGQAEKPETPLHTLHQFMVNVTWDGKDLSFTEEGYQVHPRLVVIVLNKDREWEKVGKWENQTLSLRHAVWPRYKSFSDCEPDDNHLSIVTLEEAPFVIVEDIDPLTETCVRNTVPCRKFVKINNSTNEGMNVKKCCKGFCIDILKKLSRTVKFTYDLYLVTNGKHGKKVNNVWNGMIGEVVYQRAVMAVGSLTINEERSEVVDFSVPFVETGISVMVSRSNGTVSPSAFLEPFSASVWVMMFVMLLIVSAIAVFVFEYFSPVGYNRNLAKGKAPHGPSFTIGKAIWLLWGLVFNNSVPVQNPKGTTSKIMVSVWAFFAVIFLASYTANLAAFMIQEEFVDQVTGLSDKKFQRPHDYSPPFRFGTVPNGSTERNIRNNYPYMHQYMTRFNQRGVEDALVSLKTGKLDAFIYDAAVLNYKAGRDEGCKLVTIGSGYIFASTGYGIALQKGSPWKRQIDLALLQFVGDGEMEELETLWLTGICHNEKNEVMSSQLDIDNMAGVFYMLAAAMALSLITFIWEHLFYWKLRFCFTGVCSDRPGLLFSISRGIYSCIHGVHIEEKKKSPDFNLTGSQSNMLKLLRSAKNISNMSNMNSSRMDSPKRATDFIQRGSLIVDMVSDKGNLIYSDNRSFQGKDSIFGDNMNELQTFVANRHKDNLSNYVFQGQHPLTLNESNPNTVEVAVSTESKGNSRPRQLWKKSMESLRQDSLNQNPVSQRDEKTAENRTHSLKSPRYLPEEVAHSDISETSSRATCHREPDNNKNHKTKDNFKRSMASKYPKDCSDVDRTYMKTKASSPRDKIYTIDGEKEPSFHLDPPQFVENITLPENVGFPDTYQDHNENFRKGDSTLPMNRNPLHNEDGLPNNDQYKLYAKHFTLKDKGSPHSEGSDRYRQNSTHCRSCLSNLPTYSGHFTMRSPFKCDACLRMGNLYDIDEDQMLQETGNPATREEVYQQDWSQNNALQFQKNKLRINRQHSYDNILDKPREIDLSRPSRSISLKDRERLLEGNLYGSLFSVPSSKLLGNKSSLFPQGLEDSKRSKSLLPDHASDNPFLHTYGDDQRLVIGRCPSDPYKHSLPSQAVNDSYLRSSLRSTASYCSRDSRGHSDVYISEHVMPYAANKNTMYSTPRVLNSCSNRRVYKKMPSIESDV
T1 sequence (P14867 28-456): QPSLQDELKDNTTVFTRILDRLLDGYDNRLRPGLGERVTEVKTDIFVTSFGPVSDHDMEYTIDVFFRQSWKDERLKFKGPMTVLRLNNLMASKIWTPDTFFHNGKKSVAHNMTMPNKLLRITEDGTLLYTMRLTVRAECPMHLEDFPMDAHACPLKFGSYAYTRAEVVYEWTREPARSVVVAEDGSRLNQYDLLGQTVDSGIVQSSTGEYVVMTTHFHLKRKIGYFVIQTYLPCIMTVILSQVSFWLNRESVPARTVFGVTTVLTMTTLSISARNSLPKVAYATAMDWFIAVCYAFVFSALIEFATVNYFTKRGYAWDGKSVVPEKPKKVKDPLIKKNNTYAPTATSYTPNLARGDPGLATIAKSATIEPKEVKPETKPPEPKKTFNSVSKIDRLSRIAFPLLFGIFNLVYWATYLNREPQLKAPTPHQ
T1 sequence (P63138 25-474 limits assumed): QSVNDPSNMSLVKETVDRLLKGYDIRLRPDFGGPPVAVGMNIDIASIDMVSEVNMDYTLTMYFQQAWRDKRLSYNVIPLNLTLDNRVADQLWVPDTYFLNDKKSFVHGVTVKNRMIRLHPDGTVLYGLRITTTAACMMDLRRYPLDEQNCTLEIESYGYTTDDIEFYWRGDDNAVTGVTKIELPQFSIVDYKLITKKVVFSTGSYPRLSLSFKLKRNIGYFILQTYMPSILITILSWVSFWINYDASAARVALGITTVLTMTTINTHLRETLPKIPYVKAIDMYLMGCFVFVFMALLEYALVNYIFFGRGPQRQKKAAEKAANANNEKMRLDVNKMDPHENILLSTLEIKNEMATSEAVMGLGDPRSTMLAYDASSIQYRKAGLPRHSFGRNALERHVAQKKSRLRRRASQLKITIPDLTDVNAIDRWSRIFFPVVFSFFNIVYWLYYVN
T1 sequence (P18508 39-466): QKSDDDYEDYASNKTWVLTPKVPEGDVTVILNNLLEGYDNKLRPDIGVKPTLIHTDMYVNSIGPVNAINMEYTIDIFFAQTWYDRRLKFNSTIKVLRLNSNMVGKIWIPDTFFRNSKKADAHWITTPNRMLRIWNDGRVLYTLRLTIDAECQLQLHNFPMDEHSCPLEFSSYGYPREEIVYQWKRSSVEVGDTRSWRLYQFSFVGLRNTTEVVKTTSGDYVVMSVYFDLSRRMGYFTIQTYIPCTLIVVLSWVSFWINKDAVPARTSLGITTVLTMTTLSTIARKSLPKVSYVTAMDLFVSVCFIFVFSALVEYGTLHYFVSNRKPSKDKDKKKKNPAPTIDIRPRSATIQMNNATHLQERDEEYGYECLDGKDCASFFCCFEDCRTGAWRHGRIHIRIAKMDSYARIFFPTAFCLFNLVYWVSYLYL

Row | GABAA % Direct Effect [2] | GABAA % Agonist Effect [2] [%] | NMDA % Direct Effect [3] | NMDA % Agonist Effect [3] [%] | NMDA receptor current inhibition ([3]; hydrocarbons prior to the cut-off, saturated) [%] | SMILES | ion channel modulation, TM3 versus TM4 receptors (FIG. 2) [1] | GABAA Drug Response [2] | NMDA Drug Response [3] | GABAA receptor modulation (in words) ([2]; saturating aqueous concentration) | NMDA receptor modulation (in words) [3]
1 | – | – | – | – | – | CCO [ethanol] | modulate both 3-transmembrane (TM3) and TM4 receptors | – | – | – | –
2 | – | – | – | – | – | FC1(F)C(F)(F)C(F)(Cl)C1(F)Cl (stereo not drawn) [1,2-dichlorohexafluorocyclobutane] | modulate 4-transmembrane receptors (TM4) or neither receptor type | – | – | – | –
3 | – | – | – | – | – | CCCCCCCCC [nonane] | modulate 4-transmembrane receptors (TM4) or neither receptor type | – | – | – | –
4 | 6 ± 3% | 357 ± 20 | none | 71 ± 3 | – | CCCCCCCC=O [octanal] | – | + (potentiation (+) for drug+agonist responses greater than the control agonist peak) | – | – | –
5 | none | 421 ± 17 | none | 101 ± 2 | – | C1CCCCC1 [cyclohexane] | – | + (potentiation (+) for drug+agonist responses greater than the control agonist peak) | 0 (no response (0) for drug+agonist responses that differ by <10% from the control agonist peak) | – | –
6 | none | 386 ± 20 | none | 70 ± 3 | – | CCCCCCCCCCO [1-decanol] | – | + (potentiation (+) for drug+agonist responses greater than the control agonist peak) | – | – | –
7 | none | 539 ± 35 | none | 76 ± 2 | – | CCCCCF [1-fluoropentane] | – | + (potentiation (+) for drug+agonist responses greater than the control agonist peak) | – | – | –
8 | none | 113 ± 1 | none | 112 ± 4 | – | CCCCCCOCCCCCC [dihexylether] | – | + (potentiation (+) for drug+agonist responses greater than the control agonist peak) | 0 (no response (0) for drug+agonist responses that differ by <10% from the control agonist peak) | – | –
9 | none | 299 ± 29 | none | 97 ± 8 | – | CCCCCCCCCCC=O [undecanal] | – | + (potentiation (+) for drug+agonist responses greater than the control agonist peak) | 0 (no response (0) for drug+agonist responses that differ by <10% from the control agonist peak) | – | –
10 | none | 350 ± 57 | none | 87 ± 1 | – | CCCCCCSCC [1-(ethylthio)-hexane] | – | + (potentiation (+) for drug+agonist responses greater than the control agonist peak) | – | – | –
11 | none | 305 ± 24 | none | 101 ± 2 | – | CCc1cccc(CC)c1 [1,3-diethylbenzene] | – | + (potentiation (+) for drug+agonist responses greater than the control agonist peak) | 0 (no response (0) for drug+agonist responses that differ by <10% from the control agonist peak) | – | –
12 | 22 ± 8% | 466 ± 57 | none | 85 ± 4 | 15 | CCCCCS [1-pentanethiol] | – | + (potentiation (+) for drug+agonist responses greater than the control agonist peak) | – | – | inhibited NMDA receptors
13 | none | 120 ± 3 | none | 101 ± 1 | – | CCCCCCCCSCC [1-(ethylthio)-octane] | – | + (potentiation (+) for drug+agonist responses greater than the control agonist peak) | 0 (no response (0) for drug+agonist responses that differ by <10% from the control agonist peak) | – | –
14 | none | 370 ± 34 | none | 78 ± 3 | – | CCCCCCC(=O)OCC [ethyl heptanoate] | – | + (potentiation (+) for drug+agonist responses greater than the control agonist peak) | – | – | –

Row | SMILES | GABAA % Direct Effect [2] | GABAA % Agonist Effect [2] [%] | NMDA % Direct Effect [3] | NMDA % Agonist Effect [3] [%] | NMDA receptor current inhibition ([3]; hydrocarbons prior to the cut-off, saturated) [%] | ion channel modulation, TM3 versus TM4 receptors (FIG. 2) [1] | GABAA Drug Response [2] | NMDA Drug Response [3] | GABAA receptor modulation (in words) ([2]; saturating aqueous concentration) | NMDA receptor modulation (in words) [3]
15 | CCCCCCF [1-fluorohexane] | 11 ± 4% | 207 ± 13 | none | 101 ± 1 | – | – | + (potentiation (+) for drug+agonist responses greater than the control agonist peak) | 0 (no response (0) for drug+agonist responses that differ by <10% from the control agonist peak) | – | –
16 | C=CCCCC [1-hexene] | none | 132 ± 2 | none | 97 ± 0 | – | – | + (potentiation (+) for drug+agonist responses greater than the control agonist peak) | 0 (no response (0) for drug+agonist responses that differ by <10% from the control agonist peak) | – | –
17 | CCCCCC [hexane] | none | 129 ± 5 | none | 100 ± 1 | – | – | + (potentiation (+) for drug+agonist responses greater than the control agonist peak) | 0 (no response (0) for drug+agonist responses that differ by <10% from the control agonist peak) | – | –
18 | Cc1cccc(C)c1 [1,3-dimethylbenzene] | none | 366 ± 21 | none | 58 ± 3 | – | – | + (potentiation (+) for drug+agonist responses greater than the control agonist peak) | – | – | –
19 | CCCCC [pentane] | none | 321 ± 10 | none | 94 ± 3 | – | – | + (potentiation (+) for drug+agonist responses greater than the control agonist peak) | 0 (no response (0) for drug+agonist responses that differ by <10% from the control agonist peak) | positively modulate | does not modulate NMDA receptors; also recorded: no effect
20 | CCCCCCCCCC(C)=O [2-undecanone] | none | 230 ± 16 | none | 98 ± 2 | – | – | + (potentiation (+) for drug+agonist responses greater than the control agonist peak) | 0 (no response (0) for drug+agonist responses that differ by <10% from the control agonist peak) | – | –
21 | CCCCCCCCF [1-fluoroctane] | none | 182 ± 18 | none | 98 ± 1 | – | – | + (potentiation (+) for drug+agonist responses greater than the control agonist peak) | 0 (no response (0) for drug+agonist responses that differ by <10% from the control agonist peak) | – | –
